According to US20110086759A1, “CHEMICAL COMPOUNDS” (SYNGENTA CROP PROTECTION, INC., priority 2007, published 2011):

Key:
Assay type in all cases: in vivo
[1] = system: Amaranthus retoflexus (AMARE); experiment: Post-emergence biological efficacy, glasshouse pot test; conditions: Amaranthus retroflexus, 312 h; post-emergence, 1,000 g/ha, evaluated after 13 days (100=total damage; 0=no damage); read-out: Percentage damage caused to weed species, AMARE
Outline: (§1)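 Scored 13 days after spraying on a 0 (no damage) to 100 (total damage) scale. Treatment was a post-emergence spray at 1000 or 250 g/ha, from acetone/water 50:50 plus 0.5% Tween 20, onto 8-day-old plants in soil pots. Growth at 24/16° C, 14 h photoperiod, 65% humidity, watered twice daily.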

[2] = system: Alopecurus myosuroides (ALOMY); experiment: as above; conditions: 312 h, post-emergence, 1,000 g/ha, evaluated after 13 days (100=total damage; 0=no damage), read-out: Percentage damage caused to weed species, ALOMY
Outline: as §1

[3] = system: Echinochloa crus-galli (ECHCG); experiment: as above; conditions: 312 h, post-emergence, 1,000 g/ha, evaluated after 13 days (100=total damage; 0=no damage), read-out: Percentage damage caused to weed species, ECHCG
Outline: as §1

Solanum nigrum (SOLNI) [4] = experiment: as above; conditions: 312 h, post-emergence, 1,000 g/ha, evaluated after 13 days (100=total damage; 0=no damage), read-out: Percentage damage caused to weed species, SOLNI
Outline: as §1

Setaria faberi (SETFA) [5] = experiment: as above; conditions: 312 h, post-emergence, 1,000 g/ha, evaluated after 13 days (100=total damage; 0=no damage), read-out: Percentage damage caused to weed species, SETFA
Outline: as §1

[6] = system: Ipomea hederaceae (IPOHE); experiment: as above; conditions: Ipomoea hederacea, 312 h; post-emergence, 1,000 g/ha, evaluated after 13 days (100=total damage; 0=no damage); read-out: Percentage damage caused to weed species, IPOHE
Outline: as §1

[7] = system: Amaranthus retoflexus (AMARE); experiment: Pre-emergence biological efficacy, glasshouse pot test; conditions: Amaranthus retroflexus, 312 h; pre-emergence, 1,000 g/ha, evaluated after 13 days (100=total damage; 0=no damage); read-out: Percentage damage AMARE
Outline: (§2)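 Scores on a 0–100 damage scale were taken 13 days after spraying. Application rate 1000 or 250 g/ha, one day after sowing, in acetone/water-based aqueous spray containing 0.5% Tween 20.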

[8] = system: Alopecurus myosuroides (ALOMY); experiment: as above; conditions: 312 h, pre-emergence, 1,000 g/ha, evaluated after 13 days (100=total damage; 0=no damage), read-out: Percentage damage ALOMY
Outline: as §2

[9] = system: Echinochloa crus-galli (ECHCG); experiment: as above; conditions: 312 h, pre-emergence, 1,000 g/ha, evaluated after 13 days (100=total damage; 0=no damage), read-out: Percentage damage ECHCG
Outline: as §2

Solanum nigrum (SOLNI) [10] = experiment: as above; conditions: 312 h, pre-emergence, 1,000 g/ha, evaluated after 13 days (100=total damage; 0=no damage), read-out: Percentage damage SOLNI
Outline: as §2

Setaria faberi (SETFA) [11] = experiment: as above; conditions: 312 h, pre-emergence, 1,000 g/ha, evaluated after 13 days (100=total damage; 0=no damage), read-out: Percentage damage SETFA
Outline: as §2

[12] = system: Ipomea hederaceae (IPOHE); experiment: as above; conditions: Ipomoea hederacea, 312 h; pre-emergence, 1,000 g/ha, evaluated after 13 days (100=total damage; 0=no damage); read-out: Percentage damage IPOHE
Outline: as §2

Structure (SMILES)	pest or weed control at 1000 g/ha [1] [%]	pest or weed control at 1000 g/ha [2] [%]	pest or weed control at 1000 g/ha [3] [%]	pest or weed control at 1000 g/ha (Solanum nigrum (SOLNI) [4]) [%]	pest or weed control at 1000 g/ha (Setaria faberi (SETFA) [5]) [%]	pest or weed control at 1000 g/ha [6] [%]	pest or weed control at 1000 g/ha [7] [%]	pest or weed control at 1000 g/ha [8] [%]	pest or weed control at 1000 g/ha [9] [%]	pest or weed control at 1000 g/ha (Solanum nigrum (SOLNI) [10]) [%]	pest or weed control at 1000 g/ha (Setaria faberi (SETFA) [11]) [%]	pest or weed control at 1000 g/ha [12] [%]
COC(=O)c1nc(C2CC2)nc(NCCNc2ccccc2)c1Cl [Compound 4-260, 5-Chloro-2-cyclopropyl-6-methoxycarbonyl-4-[2-(phenylamino)-ethylamino)-pyrimidine]	100	20	40	80	60	100	100	10	20	90	20	90
COC(=O)c1nc(C2CC2)nc(NCCSCc2ccccc2)c1Cl [Compound 4-262, 5-Chloro-2-cyclopropyl-6-methoxycarbonyl-4-[2-(phenylmethyl-thio)ethylamino]-pyrimidine]	80	10	10	60	30	60	40	0	0	10	0	50
COC(=O)c1nc(C2CC2)nc(NCCSCc2c(Cl)cccc2Cl)c1Cl [Compound 4-263, 5-Chloro-2-cyclopropyl-4-{2-[(2,6-dichloro-phenyl)methylthio]-ethylamino}-6-methoxycarbonyl-pyrimidine]	90	0	0	60	30	50	30	0	0	10	0	30
COC(=O)c1nc(C2CC2)nc(NCC(O)COc2ccc(Cl)cc2)c1Cl (stereo not drawn) [Compound 4-264, 5-Chloro-4-[3-(4-chlorophenoxy)-2-hydroxy-propylamino]-2-cyclopropyl-6-methoxycarbonyl-pyrimidine]	100	30	50	100	70	60	80	40	60	90	80	90
COC(=O)c1nc(C2CC2)nc(NCC(=O)OCc2ccccc2)c1Cl [Compound 4-265, 5-Chloro-2-cyclopropyl-6-methoxycarbonyl-4-(phenylmethoxy-carbonylmethyl-amino)pyrimidine]	100	20	20	70	40	60	100	10	30	90	30	90
COC(=O)c1nc(C2CC2)nc(NCCC(=O)OCc2ccccc2)c1Cl [Compound 4-266, 5-Chloro-2-cyclopropyl-6-methoxycarbonyl-4-[2-(phenylmethoxy-carbonyl)ethyl-amino]-pyrimidine]	100	60	50	80	70	100	100	50	60	100	60	100
COC(=O)c1nc(C2CC2)nc(NCC(c2ccccc2)c2ccccc2)c1Cl [Compound 4-267, 5-Chloro-2-cyclopropyl-4-[2,2-(diphenyl)-ethylamino]-6-methoxycarbonyl-pyrimidine]	90	10	10	80	20	70	90	10	10	60	10	60
COC(=O)c1nc(C2CC2)nc(NC(C)COc2ccccc2)c1Cl (stereo not drawn) [Compound 4-268, 5-Chloro-2-cyclopropyl-6-methoxycarbonyl-4-(2-phenoxy-1-methylethylamino)-pyrimidine]	30	10	10	60	10	50	10	0	0	10	0	10
COC(=O)c1nc(C2CC2)nc(NC(C)COc2ccc(C#N)cc2)c1Cl (stereo not drawn) [Compound 4-269, 5-Chloro-4-[2-(4-cyanophenoxy)-1-methyl-ethylamino]-2-cyclopropyl-6-methoxycarbonyl-pyrimidine]	100	20	0	70	60	90	40	0	0	0	0	0
COC(=O)c1nc(C2CC2)nc(NC(C)C(O)c2ccc(O)cc2)c1Cl (stereo not drawn) [Compound 4-271, 5-Chloro-2-cyclopropyl-4-[2-hydroxy-2-(4-hydroxyphenyl)-1-methyl-ethylamino]-6-methoxycarbonyl-pyrimidine]	100	30	70	90	80	100	100	20	20	90	30	100
COC(=O)c1nc(C2CC2)nc(NC(CO)Cc2ccc(Cl)cc2)c1Cl (stereo not drawn) [Compound 4-274, 5-Chloro-4-[2-(4-chlorophenyl)-1-hydroxymethyl-ethylamino]-2-cyclopropyl-6-methoxycarbonyl-pyrimidine]	100	30	20	80	30	50	60	40	30	80	40	80
